Legend:
Type in all cases: cell-based
Aβtotal [1] = assay: Method 2: Aβtotal Alphalisa on supernatant of SKNBE2 cells carrying APP 695 wild type; conditions: SKNBE2 cells APP 695 wild type, overnight
Protocol: (§1) Screening was carried out using SKNBE2 cells carrying the APP 695—wild type, grown in Dulbecco's Modified Eagle's Medium/Nutrient mixture F-12 (DMEM/NUT-mix F-12) (HAM) provided by Invitrogen (cat no. 10371-029) containing 5% Serum/Fe supplemented with 1% non-essential amino acids, 1-glutamine 2 mM, Hepes 15 mM, penicillin 50 U/ml (units/ml) en streptomycin 50 μg/ml. Cells were grown to near confluency.
(§2) The screening was performed using a modification of the assay as described in Citron et al (1997) Nature Medicine 3: 67. Briefly, cells were plated in a 384-well plate at 10^4 cells/well in Ultraculture (Lonza, BE12-725F) supplemented with 1% glutamine (Invitrogen, 25030-024), 1% non-essential amino acid (NEAA), penicillin 50 U/ml en streptomycin 50 μg/ml in the presence of test compound at different test concentrations. The cell/compound mixture was incubated overnight at 37° C., 5% CO2, The next day the media were assayed by two sandwich immuno-assays, for Aβ42 and Aβtotal.
(§3) Aβtotal and Aβ42 concentrations were quantified in the cell supernatant using the Aphalisa technology (Perkin Elmer). Alphalisa is a sandwich assay using biotinylated antibody attached to streptavidin coated donorbeads and antibody conjugated to acceptor beads. In the presence of antigen, the beads come into close proximity. The excitation of the donor beads provokes the release of singlet oxygen molecules that trigger a cascade of energy transfer in the acceptor beads, resulting in light emission. To quantify the amount of Aβ42 in the cell supernatant, monoclonal antibody specific to the C-terminus of Aβ42 (JRF/cAβ42/26) was coupled to the receptor beads and biotinylated antibody specific to the N-terminus of AB (JRF/AβN/25) was used to react with the donor beads. To quantify the amount of Aβtotal in the cell supernatant, monoclonal antibody specific to the N-terminus of AB (JRF/AβN/25) was coupled to the receptor beads and biotinylated antibody specific to the mid region of Aβ (biotinylated 4G8) was used to react with the donor beads.
(§4) To obtain the values reported in Table 3b, the data were calculated as percentage of the maximum amount of amyloid Beta 42 measured in the absence of the test compound. The sigmoidal dose response curves were analyzed using non-linear regression analysis with percentage of the control plotted against the log concentration of the compound. A 4-parameter equation was used to determine the IC50.

Aβ42 [2] = assay: Method 2: Aβ42 Alphalisa on supernatant of SKNBE2 cells carrying APP 695 wild type; conditions: SKNBE2 cells APP 695 wild type, overnight
Protocol: as §1, §2, §3, §4

Aβ42 [3] = assay: Method 1: Aβ42 sandwich ELISA on media of SKNBE2 cells carrying APP 695 wild type (γ-secretase-modulating activity); conditions: SKNBE2 cells APP 695 wild type, 18 hours
Protocol: as §1, with “Gibco” for “Invitrogen”, “31330-38)” for “10371-029)”, “acids.” for “acids, 1-glutamine 2 mM, Hepes 15 mM, penicillin 50 U/ml (units/ml) en streptomycin 50 μg/ml.”
(§5) The screening was performed using the assay as described in Citron et al (1997) Nature Medicine 3: 67. Briefly, cells were plated in a 96-well plate at about 10^5 cells/ml one day prior to addition of compounds. Compounds were added to the cells in Ultraculture (Lonza, BE12-725F) supplemented with 1% glutamine (Invitrogen, 25030-024) for 18 hours. The media were assayed by two sandwich ELISAs, for Aβ42 and Aβtotal. Toxicity of the compounds was assayed by WST-1 cell proliferation reagent (Roche, 1 644 807) according to the manufacturer's protocol.
To quantify the amount of Aβ42 in the cell supernatant, commercially available Enzyme-Linked-Immunosorbent-Assay (ELISA) kits were used (Innotest® β-Amyloid(1-42), Innogenetics N.V., Ghent, Belgium). The Aβ42 ELISA was performed essentially according to the manufacturer's protocol. Briefly, the standards (dilutions of synthetic A131-42) were prepared in polypropylene Eppendorf with final concentrations of 8000 down to […] (½ dilution step). Samples, standards and blanks (100 μl) were added to the anti-Aβ42-coated plate supplied with the kit (the capture antibody selectively recognizes the C-terminal end of the antigen). The plate was allowed to incubate 3 h at 25° C. in order to allow formation of the antibody-amyloid complex. Following this incubation and subsequent wash steps a selective anti-A13-antibody conjugate (biotinylated 3D6) was added and incubated for a minimum of 1 hour in order to allow formation of the antibody-Amyloid-antibody-complex. After incubation and appropriate wash steps, a Streptavidine-Peroxidase-Conjugate was added, followed 30 minutes later by an addition of 3,3′,5,5′-tetramethylbenzidine (TMB)/peroxide mixture, resulting in the conversion of the substrate into a coloured product. This reaction was stopped by the addition of sulfuric acid (0.9 N) and the colour intensity was measured by means of photometry with an ELISA-reader with a 450 nm filter.
(§6) To obtain the values reported in Table 3a, the sigmoidal dose response curves were analysed by computerised curve-fitting, with percent of inhibition plotted against compound concentration. A 4-parameter equation (model 205) in XLfit was used to determine the IC50. The top and the bottom of the curve were fixed to 100 and 0, respectively, and the hill slope was fixed to 1. The IC50 represents the concentration of a compound that is required for inhibiting a biological effect by 50% (Here, it is the concentration where Aβ peptide level is reduced by 50%).

Aβtotal [4] = assay: Method 1: Aβtotal sandwich ELISA on media of SKNBE2 cells carrying APP 695 wild type; conditions: SKNBE2 cells APP 695 wild type, 18 hours
Protocol: as §1, with “Gibco” for “Invitrogen”, “31330-38)” for “10371-029)”, “acids.” for “acids, 1-glutamine 2 mM, Hepes 15 mM, penicillin 50 U/ml (units/ml) en streptomycin 50 μg/ml.”
as §5
To quantify the amount of Aβtotal in the cell supernatant, samples and standards were added to a 6E10-coated plate. The plate was allowed to incubate overnight at 4° C. in order to allow formation of the antibody-amyloid complex. Following this incubation and subsequent wash steps a selective anti-AB-antibody conjugate (biotinylated 4G8) was added and incubated for a minimum of 1 hour in order to allow formation of the antibody-Amyloid-antibody-complex. After incubation and appropriate wash steps, a Streptavidine-Peroxidase-Conjugate was added, followed 30 minutes later by an addition of Quanta Blu fluorogenic peroxidase substrate according to the manufacturer's instructions (Pierce Corp., Rockford, Il).
as §6

IC50 (Aβtotal [1]; Homo sapiens)	IC50 (Aβ42 [2]; Homo sapiens)	IC50 (Aβ42 [2])	IC50 (Aβtotal [1])	SMILES	further results
6.92 µM	0.035 µM	–	–	Cc1ncc(-c2ccc(Nc3cc(F)cc4c(C)n(-c5ccc(F)cc5)nc34)cn2)o1 [Compound 47, 5-fluoro-2-(4-fluorophenyl)-3-methyl-N-[6-(2-methyl-5-oxazolyl)-3-pyridinyl]-2H-indazol-7-amine]	–
> 10 µM	0.129 µM	–	–	CCOc1cc(C)c(-n2nc3c(Nc4ccc(-c5cnc(C)o5)cc4)cccc3c2C)cc1C(C)C [Compound 30, 2-[4-ethoxy-2-methyl-5-(1-methylethyl)phenyl]-3-methyl-N-[4-(2-methyl-5-oxazolyl)phenyl]-2H-indazol-7-amine]	IC50 (Aβ42 [3]; Homo sapiens): 0.127 µM; IC50 (Aβtotal [4]; Homo sapiens): > 3 µM
4.27 µM	0.066 µM	–	–	Cc1ncoc1-c1ccc(Nc2cccc3c(C)n(-c4ccc(F)cc4)nc23)cn1 [Compound 46, 2-(4-fluorophenyl)-3-methyl-N-[6-(4-methyl-5-oxazolyl)-3-pyridinyl]-2H-indazol-7-amine]	IC50 (Aβ42 [3]; Homo sapiens): 0.199 µM; IC50 (Aβtotal [4]; Homo sapiens): > 3 µM
–	–	> 3 µM	–	CCCCn1cc2cc(CN)cc(Nc3ccc(-n4cnc(C)c4)c(OC)c3)c2n1 [Compound 12, 2-butyl-7-[[3-methoxy-4-(4-methyl-1H-imidazol-1-yl)phenyl]amino]-2H-indazole-5-methanamine .4HCl]	–
–	–	0.037 µM	> 10 µM	Cc1ncc(-c2ccc(Nc3cccc4c(C)n(-c5ccc(F)cc5)nc34)cc2)o1 [Compound 31, 2-(4-fluorophenyl)-3-methyl-N-[4-(2-methyl-5-oxazolyl)phenyl]-2H-indazol-7-amine .1.5HCl]	IC50 (Aβ42 [3]): 0.126 µM; IC50 (Aβtotal [4]): > 3 µM
–	–	> 3 µM	> 3 µM	COc1cc(Nc2cccc3cn(CC4CC4)nc23)ccc1-c1ocnc1C [Compound 37, 2-(cyclopropylmethyl)-N-[3-methoxy-4-(4-methyl-5-oxazolyl)phenyl]-2H-indazol-7-amine .2HCl]	IC50 (Aβ42 [3]): 2.66 µM; IC50 (Aβtotal [4]): > 3 µM
–	–	< 3 µM	> 3 µM	CCCCn1nc2c(Nc3ccc(-n4cnc(C)c4)c(OC)c3)cccc2c1C [Compound 10, 2-butyl-N-[3-methoxy-4-(4-methyl-1H-imidazol-1-yl)phenyl]-3-methyl-2H-indazol-7-amine .2HCl]	IC50 (Aβ42 [3]): 0.099 µM; IC50 (Aβtotal [4]): > 3 µM
–	–	> 3 µM	> 3 µM	Cc1ncc(-c2ccc(Nc3cccc4cn(C5CCC5)nc34)cc2)o1 [Compound 26, 2-cyclobutyl-N-[4-(2-methyl-5-oxazolyl)phenyl]-2H-indazol-7-amine .1.2HCl]	–
> 3 µM	> 3 µM	–	–	COc1cc(Nc2cccc3cn(C)nc23)ccc1-c1cnc(C)s1 [Compound 49, N-[3-methoxy-4-(2-methyl-5-thiazolyl)phenyl]-2-methyl-2H-indazol-7-amine]	–
8.13 µM	0.018 µM	–	–	COc1cccc(-n2nc3c(Nc4ccc(-n5cnc(C)n5)c(OC)c4)cccc3c2C)c1 [Compound 5, N-[3-methoxy-4-(3-methyl-1H-1,2,4-triazol-1-yl)phenyl]-2-(3-methoxyphenyl)-3-methyl-2H-indazol-7-amine .1.9HCl]	IC50 (Aβ42 [3]; Homo sapiens): 0.031 µM; IC50 (Aβtotal [4]; Homo sapiens): > 3 µM
–	–	0.03 µM	> 10 µM	COc1cccc(-n2nc3c(Nc4ccc(-c5ocnc5C)c(OC)c4)cccc3c2C)c1 [Compound 39, N-[3-methoxy-4-(4-methyl-5-oxazolyl)phenyl]-2-(3-methoxyphenyl)-3-methyl-2H-indazol-7-amine .1.9HCl]	IC50 (Aβ42 [3]): 0.029 µM; IC50 (Aβtotal [4]): > 3 µM
> 10 µM	0.676 µM	–	–	COc1cc(Nc2cccc3c(C)n(-c4ccc(F)cc4F)nc23)ccc1-c1cnc(C)s1 [Compound 50, 2-(2,4-difluorophenyl)-N-[3-methoxy-4-(2-methyl-5-thiazolyl)phenyl]-3-methyl-2H-indazol-7-amine]	IC50 (Aβ42 [3]; Homo sapiens): 0.865 µM
> 10 µM	0.708 µM	–	–	COc1cc(Nc2cc(C(C)C)nc3cn(CC(F)(F)F)nc23)ccc1-n1cnc(C)n1 [Compound 56, N-[3-methoxy-4-(3-methyl-1H-1,2,4-triazol-1-yl)phenyl]-5-(1-methylethyl)-2-(2,2,2-trifluoroethyl)-2H-pyrazolo[4,3-b]pyridin-7-amine]	–
–	–	> 3 µM	–	COCCn1cc2cccc(Nc3ccc(-c4ocnc4C)c(OC)c3)c2n1 [Compound 36, 2-(2-methoxyethyl)-N-[3-methoxy-4-(4-methyl-5-oxazolyl)phenyl]-2H-indazol-7-amine .1.5HCl .0.18H2O]	–
–	–	1.41 µM	–	Cc1ncc(-c2ccc(Nc3cccc4cn(CC5CC5)nc34)cn2)o1 [Compound 43, 2-(cyclopropylmethyl)-N-[6-(2-methyl-5-oxazolyl)-3-pyridinyl]-2H-indazol-7-amine .2HCl]	–
> 10 µM	0.603 µM	–	–	Cc1cn(-c2ccc(Nc3cncc4cn(CC(F)(F)F)nc34)cc2F)cn1 [Compound 55, N-[3-fluoro-4-(4-methyl-1H-imidazol-1-yl)phenyl]-2-(2,2,2-trifluoroethyl)-2H-pyrazolo[4,3-c]pyridin-7-amine]	–
–	–	> 3 µM	–	COCCn1cc2cccc(Nc3ccc(-c4cnc(C)o4)cc3)c2n1 [Compound 27, 2-(2-methoxyethyl)-N-[4-(2-methyl-5-oxazolyl)phenyl]-2H-indazol-7-amine .1.5HCl .1.25H2O]	–
> 3 µM	> 3 µM	–	–	COc1cc(Nc2cccc3cn(C)nc23)ccc1-n1cnc(C)n1 [Compound 17, N-[3-methoxy-4-(3-methyl-1H-1,2,4-triazol-1-yl)phenyl]-2-methyl-2H-indazol-7-amine]	–
–	–	0.631 µM	> 10 µM	COc1cccc(-n2nc3c(Nc4ccc(-c5ccnn5C)cc4)cccc3c2C)c1 [Compound 53, 2-(3-methoxyphenyl)-3-methyl-N-[4-(1-methyl-1H-pyrazol-5-yl)phenyl]-2H-indazol-7-amine .2HCl .0.5H2O]	–
7.08 µM	0.02 µM	–	–	CCOc1cc(C)c(-n2nc3c(Nc4ccc(-n5cnc(C)c5)c(OC)c4)cccc3c2C)cc1C(C)C [Compound 14, 2-[4-ethoxy-2-methyl-5-(1-methylethyl)phenyl]-N-[3-methoxy-4-(4-methyl-1H-imidazol-1-yl)phenyl]-3-methyl-2H-indazol-7-amine]	IC50 (Aβ42 [3]; Homo sapiens): 0.029 µM

Reference: patent publication US20120095036A1, “NOVEL SUBSTITUTED INDAZOLE AND AZA-INDAZOLE DERIVATIVES AS GAMMA SECRETASE MODULATORS” (priority 2009, published 2012)
